The text below walks through data of the METLIN SMRT retention time set (Domingo-Almenara et al. 2019).

The data set is described as follows: gradient 5% acetonitrile 3 min, to 50% in 2 min, to 85% in 15 min, held 3 min, 100 µL/min. To be noted: column: Zorbax Extend-C18 2.1 x 50 mm; eluents: water / acetonitrile, 0.1% formic acid. Put shortly: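 Retention time was recorded from adduct peaks, which were picked computationally and each inspected manually. Pure standards ran in mixtures of ~100 molecules on HPLC coupled to a quadrupole time-of-flight mass spectrometer, in positive and negative ionization mode, through a Zorbax Extend-C18 column (2.1 × 50 mm, 1.8 μm) at 100 μL/min. Eluents were water and acetonitrile, each with 0.1% formic acid.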
`Cc1cccc(C2CCCN2C(=O)c2cnn3cc(Br)cnc23)c1` (centres undefined) came in with an RP-LC retention time of 869 s.

`CC1=C(c2ccc(C(C)C)cc2)S(=O)(=O)N=C1N1CCC(NC(=O)C2CCOC2)CC1` (centres undefined) registered an RP-LC retention time of 788 s. In turn, `COc1ccc2[nH]cc(CCNC(=O)CC3CCN(C(=O)C4CCCCC4)CC3)c2c1` came in with an RP-LC retention time of 757 s.

Compound `Cn1c(CN2CCN(C(=O)c3ccco3)CC2)nc2cc(NC(=O)c3ccco3)ccc21` gave an RP-LC retention time of 607 s. `COc1ccc(CC2C(=O)Nc3ccc(Br)cc32)cc1` (centres undefined) came in with an RP-LC retention time of 882 s. For the compound `CCOC(=O)c1c(C)c(CCC(=O)N2CCN(CC)CC2)n(CC)c1C`, the RP-LC retention time stood at 631 s. `O=C(c1ccc(Cl)s1)N1CCCn2nc(-c3ccncc3)cc2C1`: the RP-LC retention time amounted to 623 s. `COc1ccccc1CNC(=O)Cn1nc2c(N3CCSCC3)nccn2c1=O` returned an RP-LC retention time of 767 s. For `CN(Cc1nc2cc(C(=O)N3CCCC3)ccc2n1C)C(=O)Nc1ccc(Br)cc1F`, the RP-LC retention time was 659 s.

For `COC(=O)c1ccc(NC(=O)C2=Cc3cc(OC)ccc3OC=C2)cc1`, the RP-LC retention time is 1040 s.

Compound `CNc1nc(N2CCOCC2)nc2ccccc12` registered an RP-LC retention time of 582 s.

`CC1=NS(=O)(=O)N(Cc2ccccc2)C=C1C(=O)OCc1ccccc1`: the RP-LC retention time came out at 1090 s.

`CCc1ccccc1NC(=O)N1CC(n2cc(COCC3CC3)nn2)C1` returned an RP-LC retention time of 725 s. On to `COc1cc(OC)cc(-c2nc(-c3cn(Cc4ccccc4)nn3)no2)c1`, for which the RP-LC retention time was 1000 s. `Cc1ccc(CNC(=O)C2(C)CCCN(C(=O)Nc3cccc(F)c3)C2)cc1` (centres undefined) gave an RP-LC retention time of 967 s. Take `CCCn1cc(C(=O)NC2CCCC2)c2nn(-c3ccccc3)c(=O)c-2c1`: the RP-LC retention time is 738 s.

As to `COCc1cc(=O)n(CC(=O)Nc2ccc(C(C)C)cc2)c(N2CCOCC2)n1`, the RP-LC retention time came to 960 s.

`O=C(C1CCCC1)N1CC(N(Cc2ccccn2)C(=O)Nc2ccccc2)C1` returned an RP-LC retention time of 579 s. In turn, `COc1ccc(-c2ncc3c(n2)CCN(S(=O)(=O)c2ccccc2C(F)(F)F)C3)cc1` yielded an RP-LC retention time of 1090 s. To `CC(C)CCNC(=O)C1(C)Cn2nc(C(=O)NCc3ccc(Cl)cc3)cc2C(=O)N1C` (centres undefined) belongs 822 s; to `COc1cc([C@H]2c3cc4c(cc3[C@@H](O)[C@H](CO)[C@H]2C(=O)Nc2ccccc2)OCO4)cc(OC)c1OC`, 730 s; to `CCNC(=O)N1CCC(OC2CCN(Cc3ccccc3)CC2)CC1`, 570 s. Take `O=C([C@@H]1C[C@H](F)CN1S(=O)(=O)c1cccc(F)c1)N1CCOCC1`: the RP-LC retention time worked out at 676 s. In turn, `O=C(Cn1ccnc1-c1ccnc(N2CCSCC2)c1)NCc1ccc(Cl)cc1` gave an RP-LC retention time of 674 s. Take `COc1ccc(NC(=O)c2noc3c2CCCCC3)cc1OC`: the RP-LC retention time came to 907 s. Turning to `O=C1c2cccc([N+](=O)[O-])c2C(=O)N1c1nc(-c2ccccc2)cs1`, the RP-LC retention time amounted to 958 s. For the compound `O=[N+]([O-])c1c(NCCO)cc(Nc2ccc3c(c2)OCCO3)c2nonc12`, the RP-LC retention time came out at 660 s.

`CN1C(=O)CSc2ccc(NC(=O)N3CCN(c4ccccn4)CC3)cc21` came in with an RP-LC retention time of 579 s. To `Clc1ccc2nnc(Cc3ccccc3)n2n1` belongs 739 s. The compound `Cc1cc(C(=O)NCC(C)C)c2cccc(C)c2n1` gave an RP-LC retention time of 697 s. As for `COCCNC(=O)c1cn2cccc(C)c2n1`, the RP-LC retention time worked out at 561 s. `Cc1ccc(-c2nnc(SCc3noc(CCC(=O)Nc4nccs4)n3)o2)cc1` showed an RP-LC retention time of 816 s.

`CCCOc1ccc(S(=O)(=O)NCC2CCN(C(=O)c3ccccc3F)CC2)cc1C` registered an RP-LC retention time of 598 s. The compound `Cc1cc(=O)n2c(-c3cccc(NC(=O)Cc4cccs4)c3)csc2n1` gave an RP-LC retention time of 696 s. Compound `CC(=O)c1ccc(N2CCN(S(=O)(=O)CCCOc3ccc(F)cc3)CC2)cc1` showed an RP-LC retention time of 753 s. `O=C(CCc1nnn2c1CN(C(=O)Cc1c[nH]c3ccccc13)CC2)N1CCCC1` showed an RP-LC retention time of 641 s. `C[C@H]1CN(C(=O)Cc2c(F)cccc2Cl)C[C@@H]1c1nc(-c2ccccc2)no1` displayed an RP-LC retention time of 1100 s. As to `CCn1c(=O)oc2cc(-c3noc(-c4cc(C)cc(C)c4)n3)ccc21`, the RP-LC retention time came out at 1300 s. As to `CC(C)c1noc(-c2cccnc2N2CCCN(Cc3cccc(F)c3)CC2)n1`, the RP-LC retention time turned out to be 708 s.

With `O=C(CCC1CCN(c2cc(NC3CC3)ncn2)CC1)NCc1ccc(Cl)cc1`, the RP-LC retention time turned out to be 680 s.

`COc1ccc(-c2nc(C)cc(C)c2CNC(=O)c2cccs2)cc1`: the RP-LC retention time came out at 610 s. As for `CC(=O)N1c2ccc(S(=O)(=O)N3CCCCC3)cc2CC1C(=O)N1CCC(C)CC1` (centres undefined), the RP-LC retention time worked out at 881 s. To `Cn1c(=O)n(C)c2cc(CNc3ccc(N4CCOCC4)c(Cl)c3)ccc21` belongs 811 s; to `Cc1nnc(N2CCCC(C(=O)NCCCN3CCCC3)C2)c2nn(-c3ccccc3)c(C)c12` (centres undefined), 558 s. In turn, `CCOC(=O)c1ccc(NC(=O)c2cnn(-c3ccc(Br)cc3)c2)cc1` returned an RP-LC retention time of 1070 s.

On to `CCn1c(C(=O)N2CCN(c3ccccn3)CC2)cc2c(=O)oc3ccccc3c21`, for which the RP-LC retention time amounted to 637 s.

`Cn1cc(CCNC(=O)Nc2ccc(F)cc2)c2cccnc21` yielded an RP-LC retention time of 679 s. To `Cc1ccccc1C1CCCN1C(=O)c1c(Cl)cnn1C` (centres undefined) belongs 892 s; to `Cc1cc(C)c(NS(=O)(=O)c2c(C)cc(C)cc2C)c(C)c1`, 1120 s. On to `COc1ccc(C2C(C(=O)NCc3ccco3)c3cc(OC)c(OC)cc3C(=O)N2C)cc1` (centres undefined), for which the RP-LC retention time is 758 s. `COc1ccccc1NC(=O)CSc1nnc2c3cc(-c4ccc(F)cc4)nn3ccn12` displayed an RP-LC retention time of 897 s. Next, `CCOC(=O)c1noc2ncnc(N(Cc3ccccc3OC)C3CCN(C)CC3)c12`: 667 s; `CCOC(=O)Cn1c(=O)c2c(nc3n2CCN3c2ccc(OC)cc2)n(C)c1=O`: 826 s; `COc1ccc(-c2nnc3n2CCN(Cc2ccccc2C#N)C3)cc1`: 668 s.

Regarding `COC(=O)c1cnc(N2CCN(Cc3ccccc3)CC2)c2ccccc12`, the RP-LC retention time came out at 682 s. In turn, `CCN1CCN(C(=O)C(C)n2c(=O)c(C(F)(F)F)nc3cc(C)c(C)cc32)CC1` (centres undefined) came in with an RP-LC retention time of 702 s. Consider `COc1ccc(C2=NC3(CCN(C(C)C)CC3)NC(c3cccc(OC)c3O)C2)cc1OC` (centres undefined), for which the RP-LC retention time came to 575 s.

As for `CCOc1ccc(C(=O)N2C[C@@H]3C[C@H]2C[C@@H]3NS(C)(=O)=O)cc1`, the RP-LC retention time came to 658 s. Turning to `COC(=O)c1ccc2c(=O)n(-c3cc(F)cc(F)c3)c(N3CCOCC3)nc2c1`, the RP-LC retention time was 945 s. Regarding `O=C(Nc1nc2c(s1)CN(S(=O)(=O)c1ccccc1)CC2)c1ccoc1`, the RP-LC retention time was 823 s. `Cc1cc(NS(=O)(=O)c2ccc3c(c2)C(=O)N(C)c2ncccc2O3)ccc1F`: the RP-LC retention time amounted to 951 s. To `COC(=O)CCSCC(=O)Nc1ccc(C)cc1C` belongs 742 s; to `Cc1noc([C@@H]2CN(C(=O)c3ccc(Cc4c(C)noc4C)o3)C[C@H]2C(N)=O)n1`, 631 s; to `O=C(c1ccccc1)N1CCN(C(=O)c2nnn3c2COC(c2ccc(Cl)cc2)C3)CC1` (centres undefined), 873 s. Next, `COc1ccc2c(c1)C1(CCN(S(=O)(=O)c3cccc(F)c3)C1)C(=O)N2` (centres undefined): 835 s; `O=C(CCn1cnc2c(cnn2-c2ccccc2)c1=O)Nc1ccc2c(c1)OCCO2`: 754 s; `Cc1nc(NCCCn2ccnc2)nc(Nc2ccccc2)c1[N+](=O)[O-]`: 589 s. As to `Cc1ccc(Nc2c(-c3cccc(Cl)c3)nc3cccc(C)n23)cc1`, the RP-LC retention time is 836 s. Next, `O=C(c1ccc(Br)cc1)N1CCN(c2cc(-c3ccc(Cl)cc3)[nH]n2)CC1`: 945 s.

The compound `Clc1ccc(-c2csc(Cc3nc(-c4ccccc4)no3)n2)cc1` registered an RP-LC retention time of 1310 s. As for `CNC(=O)C1CCCN(c2nc3ncn(CC(=O)Nc4ccc5c(c4)CCC5)c(=O)c3s2)C1` (centres undefined), the RP-LC retention time was determined as 688 s. To `CCN(CC)C(=O)c1ccc2c(c1)N(CC(=O)N(C)Cc1ccccc1)C(=O)CS2` belongs 787 s. Next, `CCOC(=O)c1noc2nc(C)nc(Nc3ccc(Cl)cc3)c12`: 1200 s. In turn, `COC(=O)c1ccc(Cl)cc1NC(=O)N1CCCn2nc(-c3cccnc3)cc2C1` had an RP-LC retention time of 758 s. The compound `CC(C)NC(=O)c1ccc2c(c1)CC(=O)N2C` displayed an RP-LC retention time of 616 s.

The compound `COc1cccc(Cc2nc(Cc3nc(-c4ccccc4)oc3C)no2)c1` showed an RP-LC retention time of 1090 s. The compound `CCOc1ccccc1NC(=O)N1CCC2(CC1)NC(=O)c1cc(Cl)ccc1N2C` registered an RP-LC retention time of 904 s. In turn, `Cc1ccc2[nH]cc(CCNC(=O)Nc3ccc(Cl)c(Cl)c3)c2c1` yielded an RP-LC retention time of 1050 s. `Cc1cc(Cl)cc2sc(NCC3CCCO3)nc12` (centres undefined) had an RP-LC retention time of 958 s.
